Source: ChEMBL document CHEMBL1201861, “Genomics of Drug Sensitity in Cancer screening data, Wellcome Trust Sanger Institute”

Columns and labels:
Assay in all cases: cells
Calu-6 = assay type: functional, cell-based, Homo sapiens; details: Homo sapiens, Calu-6;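 note: growth of human Calu-6 cells, read out by a cell viability assay, IC50 marking inhibition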
Description: SANGER: Inhibition of human Calu-6 cell growth in a cell viability assay.

DB = assay type: functional, cell-based; details: Homo sapiens
Description: SANGER: Inhibition of human DB cell growth in a cell viability assay.

EFO-21 = assay type: functional, cell-based, Homo sapiens; details: Homo sapiens, EFO-21;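 note: growth inhibition of EFO-21 cells measured with a viability assay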
Description: SANGER: Inhibition of human EFO-21 cell growth in a cell viability assay.

EFO-27 = assay type: functional, cell-based, Homo sapiens; details: Homo sapiens, EFO-27;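 note: growth inhibition of EFO-27 cells, read out with a cell viability assay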
Description: SANGER: Inhibition of human EFO-27 cell growth in a cell viability assay.

ETK-1 = assay type: functional, cell-based, Homo sapiens; details: Homo sapiens, ETK-1;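 note: growth inhibition of human ETK-1 cells, read out with a cell viability assay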
Description: SANGER: Inhibition of human ETK-1 cell growth in a cell viability assay.

EW-16 = assay type: functional, cell-based, Homo sapiens; details: Homo sapiens, EW-16;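 note: growth inhibition of human EW-16 cells, read out as cell viability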
Description: SANGER: Inhibition of human EW-16 cell growth in a cell viability assay.

GB-1 = assay type: functional, cell-based, Homo sapiens; details: Homo sapiens, GB-1;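 note: growth of GB-1 cells judged by a viability assay, IC50 marks the concentration inhibiting growth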
Description: SANGER: Inhibition of human GB-1 cell growth in a cell viability assay.

HCC1187 = assay type: functional, cell-based, Homo sapiens; details: Homo sapiens, HCC1187;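 note: growth inhibition of HCC1187 cells, read out with a cell viability assay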
Description: SANGER: Inhibition of human HCC1187 cell growth in a cell viability assay.

HLE = assay type: functional, cell-based, Homo sapiens; details: Homo sapiens, HLE;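 note: growth inhibition of human HLE cells, read out by a cell viability assay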
Description: SANGER: Inhibition of human HLE cell growth in a cell viability assay.

IGROV-1 = assay type: functional, cell-based, Homo sapiens; details: Homo sapiens, IGROV-1;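 note: reduction of IGROV-1 cell growth, read out with a viability assay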
Description: SANGER: Inhibition of human IGROV-1 cell growth in a cell viability assay.

KGN = assay type: functional, cell-based, Homo sapiens; details: Homo sapiens, KGN;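 note: growth inhibition of KGN cells, read out with a cell viability assay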
Description: SANGER: Inhibition of human KGN cell growth in a cell viability assay.

KNS-81-FD = assay type: functional, cell-based, Homo sapiens; details: Homo sapiens, KNS-81-FD;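 note: growth inhibition of KNS-81-FD cells, read out with a cell viability assay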
Description: SANGER: Inhibition of human KNS-81-FD cell growth in a cell viability assay.

KYSE-510 = assay type: functional, cell-based, Homo sapiens; details: Homo sapiens, KYSE-510;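 note: cell viability readout used to measure how strongly growth of the cell line is suppressed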
Description: SANGER: Inhibition of human KYSE-510 cell growth in a cell viability assay.

KYSE-70 cell line = assay type: functional, cell-based, Homo sapiens; details: Homo sapiens, KYSE-70;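 note: cell viability assay read-out, with IC50 expressing suppression of KYSE-70 cell growth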
Description: SANGER: Inhibition of human KYSE-70 cell growth in a cell viability assay.

LB771-HNC = assay type: functional, cell-based, Homo sapiens; details: Homo sapiens, LB771-HNC;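 note: growth inhibition of LB771-HNC human cells, read out with a cell viability assay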
Description: SANGER: Inhibition of human LB771-HNC cell growth in a cell viability assay.

LU-99A = assay type: functional, cell-based, Homo sapiens; details: Homo sapiens, LU-99A;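 note: growth inhibition of LU-99A cells, read out with a cell viability assay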
Description: SANGER: Inhibition of human LU-99A cell growth in a cell viability assay.

MC116 = assay type: functional, cell-based; details: Homo sapiens;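 note: growth inhibition of MC116 cells, read out with a cell viability assay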
Description: SANGER: Inhibition of human MC116 cell growth in a cell viability assay.

MDA-MB-157 = assay type: functional, cell-based, Homo sapiens; details: Homo sapiens, MDA-MB-157
Description: SANGER: Inhibition of human MDA-MB-157 cell growth in a cell viability assay.

MEL-HO = assay type: functional, cell-based, Homo sapiens; details: Homo sapiens, MEL-HO
Description: SANGER: Inhibition of human MEL-HO cell growth in a cell viability assay.

MKN-1 = assay type: functional, cell-based, Homo sapiens; details: Homo sapiens, MKN-1;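 note: growth inhibition of human MKN1 cells, read out by a cell viability measurement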
Description: SANGER: Inhibition of human MKN1 cell growth in a cell viability assay.

MeWo = assay type: functional, cell-based, Homo sapiens; details: Homo sapiens, MeWo;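 note: growth inhibition of MeWo cells, determined by a cell viability readout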
Description: SANGER: Inhibition of human Mewo cell growth in a cell viability assay.

NB12 = assay type: functional, cell-based, Homo sapiens; details: Homo sapiens, NB12;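 note: growth inhibition of human NB12 cells, read out by a cell viability assay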
Description: SANGER: Inhibition of human NB12 cell growth in a cell viability assay.

NCI-H1299 = assay type: functional, cell-based, Homo sapiens; details: Homo sapiens, NCI-H1299;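 note: growth inhibition of human NCI-H1299 cells, read out by a cell viability assay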
Description: SANGER: Inhibition of human NCI-H1299 cell growth in a cell viability assay.

NCI-H1437 = assay type: functional, cell-based, Homo sapiens; details: Homo sapiens, NCI-H1437;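 note: growth inhibition of human NCI-H1437 cells, read out by a cell viability assay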
Description: SANGER: Inhibition of human NCI-H1437 cell growth in a cell viability assay.

NCI-H1581 = assay type: functional, cell-based, Homo sapiens; details: Homo sapiens, NCI-H1581;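 note: cell growth inhibition read out by a viability assay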
Description: SANGER: Inhibition of human NCI-H1581 cell growth in a cell viability assay.

NCI-H1838 = assay type: functional, cell-based, Homo sapiens; details: Homo sapiens, NCI-H1838;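 note: growth inhibition of NCI-H1838 cells, determined with a cell viability readout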
Description: SANGER: Inhibition of human NCI-H1838 cell growth in a cell viability assay.

NCI-H226 = assay type: functional, cell-based, Homo sapiens; details: Homo sapiens, NCI-H226;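 note: cell viability read-out used to gauge growth inhibition of the cells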
Description: SANGER: Inhibition of human NCI-H226 cell growth in a cell viability assay.

SNU-5 = assay type: functional, cell-based; details: Homo sapiens;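 note: cell viability readout used to measure growth inhibition in human NCI-SNU-5 cells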
Description: SANGER: Inhibition of human NCI-SNU-5 cell growth in a cell viability assay.

OAW-42 = assay type: functional, cell-based, Homo sapiens; details: Homo sapiens, OAW-42;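 note: growth inhibition of OAW-42 cells, read out with a cell viability assay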
Description: SANGER: Inhibition of human OAW-42 cell growth in a cell viability assay.

OCI-AML2 = assay type: functional, cell-based; details: Homo sapiens;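 note: growth inhibition of OCI-AML2 cells, read out with a cell viability assay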
Description: SANGER: Inhibition of human OCI-AML2 cell growth in a cell viability assay.

OVCAR-3 = assay type: functional, cell-based, Homo sapiens; details: Homo sapiens, OVCAR-3;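 note: growth inhibition of human OVCAR-3 cells, determined by a cell viability assay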
Description: SANGER: Inhibition of human OVCAR-3 cell growth in a cell viability assay.

P30-OHK = assay type: functional, cell-based; details: Homo sapiens;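 note: growth inhibition of the P30-OHK cell line, read out with a cell viability assay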
Description: SANGER: Inhibition of human P30-OHK cell growth in a cell viability assay.

RXF 393 = assay type: functional, cell-based; details: Homo sapiens;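 note: growth inhibition of human RXF 393 cells, read out with a cell viability assay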
Description: SANGER: Inhibition of human RXF393 cell growth in a cell viability assay.

Ramos-2G6-4C10 = assay type: functional, cell-based; details: Homo sapiens;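 note: growth inhibition of the cell line, measured by a cell viability read-out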
Description: SANGER: Inhibition of human Ramos-2G6-4C10 cell growth in a cell viability assay.

SHP77 = assay type: functional, cell-based, Homo sapiens, SHP-77; details: Homo sapiens, SHP77;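 note: growth inhibition of human SHP-77 cells measured by a cell viability assay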
Description: SANGER: Inhibition of human SHP-77 cell growth in a cell viability assay.

SJSA-1 = assay type: functional, cell-based, Homo sapiens; details: Homo sapiens, SJSA-1;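 note: growth inhibition of human SJSA-1 cells, read out through a cell viability measurement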
Description: SANGER: Inhibition of human SJSA-1 cell growth in a cell viability assay.

SNB-75 = assay type: functional, cell-based, Homo sapiens; details: Homo sapiens, SNB-75;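 note: cell viability assay measuring growth inhibition of human SNB-75 cells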
Description: SANGER: Inhibition of human SNB75 cell growth in a cell viability assay.

SNU-387 = assay type: functional, cell-based, Homo sapiens; details: Homo sapiens, SNU-387
Description: SANGER: Inhibition of human SNU-387 cell growth in a cell viability assay.

SW948 = assay type: functional, cell-based, Homo sapiens; details: Homo sapiens, SW948;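 note: growth inhibition of SW948 cells, read out with a cell viability assay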
Description: SANGER: Inhibition of human SW948 cell growth in a cell viability assay.

ACN = assay type: functional, cell-based, Homo sapiens; details: Homo sapiens, ACN;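 note: growth inhibition of the human ACN cell line, read out via cell viability testing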
Description: SANGER: Inhibition of human ACN cell growth in a cell viability assay.

AN3-CA = assay type: functional, cell-based; details: Homo sapiens;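 note: growth inhibition of human AN3-CA cells measured by a cell viability assay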
Description: SANGER: Inhibition of human AN3-CA cell growth in a cell viability assay.

BFTC-909 = assay type: functional, cell-based, Homo sapiens; details: Homo sapiens, BFTC-909
Description: SANGER: Inhibition of human BFTC-909 cell growth in a cell viability assay.

BT-474 = assay type: functional, cell-based, Homo sapiens; details: Homo sapiens, BT-474
Description: SANGER: Inhibition of human BT-474 cell growth in a cell viability assay.

C32 = assay type: functional, cell-based, Homo sapiens; details: Homo sapiens, C32;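 note: cell viability assay, with IC50 reflecting inhibition of C32 cell growth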
Description: SANGER: Inhibition of human C32 cell growth in a cell viability assay.

TGBC1TKB = assay type: functional, cell-based, Homo sapiens; details: Homo sapiens, TGBC1TKB;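 note: growth inhibition of TGBC1TKB cells, read out by a cell viability assay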
Description: SANGER: Inhibition of human TGBC1TKB cell growth in a cell viability assay.

U2OS = assay type: functional, cell-based, Homo sapiens, U-2-OS; details: Homo sapiens, U2OS;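 note: growth inhibition of human U-2-OS cells, determined with a cell viability assay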
Description: SANGER: Inhibition of human U-2-OS cell growth in a cell viability assay.

YKG-1 = assay type: functional, cell-based, Homo sapiens; details: Homo sapiens, YKG-1;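 note: cell growth inhibition, read out with a viability assay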
Description: SANGER: Inhibition of human YKG-1 cell growth in a cell viability assay.

no-10 = assay type: functional, cell-based, Homo sapiens; details: Homo sapiens;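 note: growth inhibition of no-10 cells, read out with a cell viability assay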
Description: SANGER: Inhibition of human no-10 cell growth in a cell viability assay.

CHP-212 = assay type: functional, cell-based, Homo sapiens; details: Homo sapiens, CHP-212
Description: SANGER: Inhibition of human CHP-212 cell growth in a cell viability assay.

D-336MG = assay type: functional, cell-based, Homo sapiens; details: Homo sapiens, D-336MG
Description: SANGER: Inhibition of human D-336MG cell growth in a cell viability assay.

NB14 = assay type: functional, cell-based; details: Homo sapiens;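 note: growth inhibition of NB14 cells measured with a cell viability assay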
Description: SANGER: Inhibition of human NB14 cell growth in a cell viability assay.

Compound: Cn1cncc1[C@@](N)(c1ccc(Cl)cc1)c1ccc2c(c1)c(-c1cccc(Cl)c1)cc(=O)n2C [TIPIFARNIB]
- IC50 (Calu-6): 1.28 µM
- IC50 (DB): 10.7 µM
- IC50 (EFO-21): 4.26 µM
- IC50 (EFO-27): 0.714 µM
- IC50 (ETK-1): 0.0215 µM
- IC50 (EW-16): 3.59 µM
- IC50 (GB-1): 3.7 µM
- IC50 (HCC1187): 7.61 µM
- IC50 (HLE): 0.448 µM
- IC50 (IGROV-1): 0.208 µM
- IC50 (KGN): 0.452 µM
- IC50 (KNS-81-FD): 11.2 µM
- IC50 (KYSE-510): 0.977 µM
- IC50 (KYSE-70 cell line): 1.41 µM
- IC50 (LB771-HNC): 1.13 µM
- IC50 (LU-99A): 7.09 µM
- IC50 (MC116): 4.03 µM
- IC50 (MDA-MB-157): 14.7 µM
- IC50 (MEL-HO): 2.24 µM
- IC50 (MKN-1): 1.88 µM
- IC50 (MeWo): 2.04 µM
- IC50 (NB12): 7.99 µM
- IC50 (NCI-H1299): 0.693 µM
- IC50 (NCI-H1437): 8.21 µM
- IC50 (NCI-H1581): > 16 µM
- IC50 (NCI-H1838): > 16 µM
- IC50 (NCI-H226): > 16 µM
- IC50 (SNU-5): > 16 µM
- IC50 (OAW-42): 0.956 µM
- IC50 (OCI-AML2): 2.03 µM
- IC50 (OVCAR-3): > 16 µM
- IC50 (P30-OHK): 0.264 µM
- IC50 (RXF 393): > 16 µM
- IC50 (Ramos-2G6-4C10): > 16 µM
- IC50 (SHP77): 9.94 µM
- IC50 (SJSA-1): > 16 µM
- IC50 (SNB-75): 9.02 µM
- IC50 (SNU-387): 7.06 µM
- IC50 (SW948): > 16 µM
- IC50 (ACN): 1.46 µM
- IC50 (AN3-CA): 1 µM
- IC50 (BFTC-909): 8.37 µM
- IC50 (BT-474): > 16 µM
- IC50 (C32): > 16 µM
- IC50 (TGBC1TKB): > 16 µM
- IC50 (U2OS): > 16 µM
- IC50 (YKG-1): 0.526 µM
- IC50 (no-10): > 16 µM
- IC50 (CHP-212): 1.38 µM

Compound: COC(=O)CNC(=O)C(=O)OC
- IC50 (Calu-6): 732 µM
- IC50 (D-336MG): > 4000 µM
- IC50 (DB): 52.4 µM
- IC50 (EFO-21): 260 µM
- IC50 (EFO-27): 541 µM
- IC50 (ETK-1): 525 µM
- IC50 (EW-16): 377 µM
- IC50 (GB-1): 94 µM
- IC50 (HCC1187): > 4000 µM
- IC50 (HLE): 57.7 µM
- IC50 (IGROV-1): 1390 µM
- IC50 (KGN): 62.8 µM
- IC50 (KNS-81-FD): 1850 µM
- IC50 (KYSE-510): 112 µM
- IC50 (KYSE-70 cell line): 551 µM
- IC50 (LB771-HNC): 412 µM
- IC50 (LU-99A): 197 µM
- IC50 (MC116): 174 µM
- IC50 (MDA-MB-157): 566 µM
- IC50 (MEL-HO): 3610 µM
- IC50 (MKN-1): 2190 µM
- IC50 (MeWo): 230 µM
- IC50 (NB12): 85.4 µM
- IC50 (NCI-H1299): 2150 µM
- IC50 (NCI-H1437): 90.8 µM
- IC50 (NCI-H1581): 729 µM
- IC50 (NCI-H1838): > 4000 µM
- IC50 (NCI-H226): > 4000 µM
- IC50 (SNU-5): > 4000 µM
- IC50 (OAW-42): 425 µM
- IC50 (OCI-AML2): 501 µM
- IC50 (OVCAR-3): 206 µM
- IC50 (P30-OHK): 467 µM
- IC50 (RXF 393): 1260 µM
- IC50 (Ramos-2G6-4C10): 100 µM
- IC50 (SHP77): 821 µM
- IC50 (SJSA-1): 278 µM
- IC50 (SNB-75): 438 µM
- IC50 (SNU-387): 220 µM
- IC50 (SW948): 2620 µM
- IC50 (ACN): 128 µM
- IC50 (AN3-CA): 209 µM
- IC50 (BFTC-909): 252 µM
- IC50 (BT-474): > 4000 µM
- IC50 (C32): > 4000 µM
- IC50 (TGBC1TKB): 1790 µM
- IC50 (YKG-1): 767 µM
- IC50 (no-10): 995 µM
- IC50 (CHP-212): 181 µM

Compound: O=C(c1cc(Cc2n[nH]c(=O)c3ccccc23)ccc1F)N1CCN(C(=O)C2CC2)CC1 [OLAPARIB]
- IC50 (Calu-6): > 5 µM
- IC50 (D-336MG): > 5 µM
- IC50 (DB): 3.65 µM
- IC50 (EFO-21): > 5 µM
- IC50 (EFO-27): > 5 µM
- IC50 (ETK-1): > 5 µM
- IC50 (EW-16): > 5 µM
- IC50 (GB-1): > 5 µM
- IC50 (HLE): > 5 µM
- IC50 (KGN): > 5 µM
- IC50 (KNS-81-FD): > 5 µM
- IC50 (KYSE-510): > 5 µM
- IC50 (KYSE-70 cell line): > 5 µM
- IC50 (LB771-HNC): > 5 µM
- IC50 (LU-99A): > 5 µM
- IC50 (MC116): > 5 µM
- IC50 (MDA-MB-157): > 5 µM
- IC50 (MEL-HO): > 5 µM
- IC50 (MKN-1): > 5 µM
- IC50 (MeWo): > 5 µM
- IC50 (NB12): > 5 µM
- IC50 (NB14): > 5 µM
- IC50 (NCI-H1299): > 5 µM
- IC50 (NCI-H1437): > 5 µM
- IC50 (NCI-H1581): > 5 µM
- IC50 (NCI-H1838): > 5 µM
- IC50 (NCI-H226): > 5 µM
- IC50 (SNU-5): > 5 µM
- IC50 (OAW-42): > 5 µM
- IC50 (OCI-AML2): > 5 µM
- IC50 (OVCAR-3): > 5 µM
- IC50 (P30-OHK): > 5 µM
- IC50 (RXF 393): > 5 µM
- IC50 (Ramos-2G6-4C10): > 5 µM
- IC50 (SHP77): > 5 µM
- IC50 (SJSA-1): > 5 µM
- IC50 (SNB-75): > 5 µM
- IC50 (SNU-387): > 5 µM
- IC50 (SW948): > 5 µM
- IC50 (ACN): > 5 µM
- IC50 (AN3-CA): > 5 µM
- IC50 (BFTC-909): > 5 µM
- IC50 (BT-474): > 5 µM
- IC50 (C32): > 5 µM
- IC50 (TGBC1TKB): > 5 µM
- IC50 (U2OS): > 5 µM
- IC50 (YKG-1): > 5 µM
- IC50 (no-10): > 5 µM
- IC50 (CHP-212): > 5 µM
